According to patent US8067372B2, “Modulation of angiogenesis by A-beta peptide fragments” (Alzheimer's Institute of America, Inc., priority 2005, dated 2011):
Entries after “also recorded” stand apart in the source; their conditions may differ.

Tests used:
[1] = system: Human Umbilical Vein Endothelial Cells (HUVEC); test: Capillary tube formation assay (HUVEC on Matrigel); assay type: cell-based; details: for Total length of capillary tubes (percentage of control): ANOVA main effect: 0, 1, 5 and 10 μM doses
Method: All in-vitro experiments were performed using primary Human Umbilical Vein Endothelial Cells (HUVEC) at passages 3-4, purchased from American Tissue Type Culture Collection (ATCC, VA). Cells were cultured in F12K Medium (ATCC, VA) supplemented with 10% fetal bovine serum (Invitrogen, CA), 0.1 mg/ml Heparin and 0.03 mg/ml endothelial cell growth supplement (Sigma-Aldrich, MO). At all times, cells were maintained in a sterile cell culture incubator at 37° C. and 5% CO2.
HUVEC (7.5×10^4 cells/ml) in 500 μl of medium were seeded in 24-well plates, on top of a layer of Matrigel basement membrane matrix (Invitrogen, CA) in F12K medium (ATCC, VA) containing 4% serum (Invitrogen, CA), 0.1 mg/ml Heparin and 0.03 mg/ml endothelial cell growth supplement (Sigma-Aldrich, MO). Cells were incubated with peptides (or control conditions) for 24 hours. Control wells received the same volume of vehicle (DMSO) used to dilute the peptides. Network formation experiments were performed in triplicate, and at least 2 randomly chosen fields were photographed for each well using a 4× objective. Capillary length was measured using Image Pro Plus software (Media Cybernetic, Inc., MD).

[2] = system: VEGF-induced angiogenesis; test: Rat corneal micropocket assay; assay type: in vivo; details: 0.5, 2.5 and 5.0 μg with 200 ng VEGF; 7 days
Method: The vascular growth response was measured seven days post implantation. The lengths and widths of vessel outgrowths were measured and the angiogenic index (AI) calculated using the formula L×W=AI. Rats were perfused with colloidal carbon, eyes enucleated and fixed in 10% buffered formalin. Corneas were removed under an Olympus dissecting microscope and mounted on glass slides with Crystal Mount media.

[3] = tested at 1, 5 and 10 μM, 24 hours

LVFFAEDVGSNK (listed as Homo sapiens) [Aβ17-28]
anti-angiogenic activity in capillary network formation [1, 3]: did not display any anti-angiogenic activity; also recorded: not active

DAEFRHDSGYEVAAQALVFFAEDVGSNK (listed as Homo sapiens) [Aβ1-28 Mutant 2]
Total length of capillary tubes (percentage of control): ANOVA main effect [1]: no main effect

HHHQKLVFF (listed as Homo sapiens) [Fragment 1]
inhibition of VEGF-induced angiogenesis in vivo (Angiogenic Index) [2]: appears antiangiogenic in vivo | Total length of capillary tubes (percentage of control): ANOVA main effect [1]: significant main effect | Total length of capillary tubes (percentage of control): post hoc effect ([1]; 1, 5 and 10 μM, P<0.005): significant effects

LMVGGVVIA (listed as Homo sapiens) [Aβ34-42]
anti-angiogenic activity in capillary network formation [1, 3]: pro-angiogenic activity; also recorded: did not display any anti-angiogenic activity; also recorded: promoted angiogenesis in a dose dependent manner; also recorded: not active

DAEFRHDSGYEVGGQGLVFFAEDVGSNK (listed as Homo sapiens) [Aβ1-28 Mutant 1]
Total length of capillary tubes (percentage of control): ANOVA main effect [1]: no main effect

GSNKGAIIGLM (listed as Homo sapiens) [Aβ25-35]
anti-angiogenic activity in capillary network formation ([1]; 5 μM): slightly active | anti-angiogenic activity in capillary network formation ([1]; 10 μM): not at 10 μM | anti-angiogenic activity in capillary network formation [1, 3]: not active

YEVHHQKLVFFAEDVGSNKGAIIGLM (listed as Homo sapiens) [Aβ10-35]
Total length of capillary tubes (percentage of control): post hoc difference from control ([1]; 5 and 10 μM doses, P<0.005, 24 hours, n≧8): significant differences | anti-angiogenic activity in capillary network formation [1, 3]: most active

heparin [reference compound]
reversal of inhibition of capillary tube formation induced by Aβ1-42 ([1]; heparin 500 μg/ml and 1 mg/ml added with Aβ1-42, P<0.001 vs Aβ alone): effectively reverse; also recorded: effectively reversed inhibition | inhibition of angiogenesis (capillary tube formation) by heparin alone ([1]; heparin alone, 0.5 or 1 mg/ml): slight inhibition

YEVHHQK (listed as Homo sapiens) [Aβ10-16]
anti-angiogenic activity in capillary network formation [1, 3]: did not display any anti-angiogenic activity; also recorded: inactive
